Source: patent US20240108632A1, “PHARMACEUTICAL COMPOSITION FOR ADMINISTRATION AS OPHTHALMIC DROP TO PATIENT REQUIRING OPTIC NERVE PROTECTION” (PINOTBIO, INC., priority 2020, published 2024)
In brackets after ≈: the same amount, converted by molar mass.

How the values were obtained:
[1] = test system: cynomolgus macaque model of glaucoma; assay: Retinal nerve fiber layer thickness by OCT in cynomolgus macaque model of glaucoma; type: in vivo
Protocol: (§1) Three weeks before the first laser trabeculoplasty, IOP was measured via a tomometer (SPHPR-320-61), once per week for three weeks. The first laser trabeculoplasty was performed in one eye for each macaque. Two weeks later, laser trabeculoplasty was repeated in the same eye (Week 0).
(§2) One week after the second laser trabeculoplasty (Week 1), IOP was measured and retinal nerve fiber layer (RNFL) thickness was measured via optical coherence tomography (OCT; RS3000 Advance, Nidek Co. Ltd., Gamagoori, Japan) (SPHPR- 320-58). The day after group assignment, the eyes were instilled with either vehicle, KR-67607 or brimonidine twice a day. On Day 1, the effect of treatment on IOP over time was measured before treatment and 1, 2, 4, and 8 hrs. after instillation. At the same time, blood samples were obtained. From the effects of dosing observed on Day 1, it was determined that 2 hrs. was a reasonable time time-to-test following instillation for subsequent observations.
(§3) Intraocular pressures were obtained at Weeks 2, 3, 4, 5, 7 and 9. Optical coherence tomography and color fundus photography (CFP) were performed at Weeks 1, 3, 5, 7, and 9 (SPHPR-320-56).

DBA/2 mice [2] = assay: Intraocular pressure in ocular hypertensive glaucoma mouse model; type: in vivo; details: for IOP reduced compared to control group: week 16, 20 μl both eyes twice daily
Protocol: In this study, we evaluated the efficacy of KR-67607 in a mouse model of glaucoma using DBA/2 mice, which are congenitally predisposed to persistently elevated intraocular pressure (FIG. 9).
IOP was measured after the acclimatization period and then every 4 weeks. IOP was measured in respiratory anesthetized mice according to the manufacturer's instructions and the mean value presented after six measurements was recorded.

DBA/2 mice [3] = assay: Retinal electroretinogram in glaucoma mouse model; type: in vivo; details: after 8 weeks; right eye only; 0.3 log cd×s/m^2 stimulation; high-dose; transient
Protocol: […] was performed according to the manufacturer's instructions after mice were anesthetized by instilling 20 μl of paracaine eye drops 0.5% in both eyes. The electrodes were placed on the scalp, tail, and cornea, respectively, and a certain amount of monochromatic white light stimulation was applied to perform retinal electroretinography. The response value of the stimulated retina and the amplitude from the crest of the a-wave to the peak of the b-wave were measured and evaluated as an indicator of retinal function.
To determine the effect of KR-67607 on retinal dysfunction and optic nerve damage, the electroretinograms of mice in the study were measured at 4-week intervals for 16 weeks. The electroretinograms were quantified by analyzing responses obtained by exposing the left and right eyes of the mice to −0.9, 0.3, and 1.2 log cd×s/m^2 of light, respectively. […] Before drug administration, there was no significant difference in retinal electroretinograms between the control, drug, and positive control groups. […] This effect was only transient at week 8, and no significant difference was seen from week 12.

11β-HSD1 = 11β-HSD1 (Homo sapiens, UniProt P28845); details: known; cited from earlier work
Sequence of 11β-HSD1 (P28845 whole entry, species assumed): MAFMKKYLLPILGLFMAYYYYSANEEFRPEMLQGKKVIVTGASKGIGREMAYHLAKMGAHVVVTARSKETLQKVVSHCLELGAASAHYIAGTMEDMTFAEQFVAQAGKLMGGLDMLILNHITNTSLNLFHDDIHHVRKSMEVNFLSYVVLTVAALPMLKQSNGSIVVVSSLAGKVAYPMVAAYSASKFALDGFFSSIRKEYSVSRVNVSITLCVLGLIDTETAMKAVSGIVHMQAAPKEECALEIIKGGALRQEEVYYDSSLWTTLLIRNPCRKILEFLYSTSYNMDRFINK

Solubility by pH = type: physicochemical; details: stirred 12 hours
Protocol: 50 mL of pH 1 to 12 solution and tertiary purified water were taken precisely and placed in a 50 mL clear glass vial, and an excess amount (50 mg) of KR-67607 was weighed and added and stirred for 12 hours. Then, it was allowed to stand for 20 minutes to settle the undissolved excess of KR-67607, and the supernatant was taken and filtered through a 0.2 μm PVDF filter as a stock solution.
The standard was prepared by accurately weighing 15 mg of KR-67607, placing it in a 50 mL volumetric flask, using diluent (0.02 M potassium dihydrogen phosphate aqueous solution:acetonitrile=50:50 (v/v)) to completely dissolve/mark KR-67607, and filtering the liquid through a 0.45 μm PVDF filter as the standard.
The HPLC analysis conditions were as follows • Detector: ultraviolet-visible absorption spectrophotometer (measuring wavelength: 254 nm) • Column: 250×4.6 mm, 5μm, C18 packing column • Column temperature: 25±3° C. • Injection volume: 25 μL • Flow rate: 1 mL/min • Mobile Phase: Gradient

[4] = test system: cynomolgus macaque model of glaucoma; assay: Intraocular pressure in cynomolgus macaque model of glaucoma (laser trabeculoplasty); type: in vivo; details: for maximum decrease of IOP, glaucomatous eye: 2 hours after instillation
Protocol: as §1, §2, §3
Following measurements at Week 9, G3 macaques was randomized into two groups based on IOP, and the effect of KR-67607 (1.5 mg/mL, 3.0 mg/mL) on IOP was evaluated.

[5] = test system: cynomolgus macaque model of glaucoma; assay: Funduscopy in cynomolgus macaque model of glaucoma; type: in vivo
Protocol: as §1, §2, §3

## CC1CN(CC(=O)NC2C3CC4CC2CC(C(N)=O)(C4)C3)S(=O)(=O)N(c2c(Cl)cc(C(F)(F)F)cc2Cl)C1 [KR-67607, (1s, 3R,4s,5S,7s)-4-(2-(6-(2,6-dichloro-4-(trifluoromethyl)phenyl)-4-methyl-1,1-dioxido-1,2,6-thiadiazinan-2-yl)acetamido)adamantane-1-carboxamide]
[1]; 5 weeks, unpaired t-test, p<0.05
  RNFL thickness compared with vehicle treatment: greater
[1]; Week 9, 6 eyes per group
  number of eyes with RNFL thickness greater than 50% compared to baseline: 3
[1]; repeated treatment, compared to vehicle-treated (G1)
  RNFL thinning in glaucomatous eyes: significantly inhibited
[1]; summary
  inhibitory effect on RNFL thinning relative to brimonidine: greater than that of brimonidine
DBA/2 mice [2]; high dose KR-67607 (1.5 mg/ml)
  week from which significant IOP reduction was seen: 4 week
DBA/2 mice [2]; low-dose KR-67607 (0.75 mg/ml)
  week from which IOP-lowering effects were observed: 12 week
DBA/2 mice [2]; high-dose KR-67607 (1.5 mg/ml)
  IOP reduced compared to control group: 26%
DBA/2 mice [2]; low concentration KR-67607 (0.75 mg/ml)
  IOP reduced compared to control group: 16%
DBA/2 mice [3]
  retinal electroretinograms compared to control group: significant increase
11β-HSD1
  inhibitory activity against 11β-HSD1: good inhibitory activity
Solubility by pH; Purified water
  Solubility: 18.83 µg/mL (≈ 31.5 µM)
Solubility by pH; pH 1 solution
  Solubility: 47.83 µg/mL (≈ 80.1 µM)
Solubility by pH; pH 3 solution
  Solubility: 46.08 µg/mL (≈ 77.1 µM)
Solubility by pH; pH 5 solution
  Solubility: 42.52 µg/mL (≈ 71.2 µM)
Solubility by pH; pH 6 solution
  Solubility: 43.61 µg/mL (≈ 73 µM)
Solubility by pH; pH 7 solution
  Solubility: 43.77 µg/mL (≈ 73.3 µM)
Solubility by pH; pH 8 solution
  Solubility: 41.95 µg/mL (≈ 70.2 µM)
Solubility by pH; pH 9 solution
  Solubility: 45.97 µg/mL (≈ 76.9 µM)
Solubility by pH; pH 10 solution
  Solubility: 44.53 µg/mL (≈ 74.5 µM)
Solubility by pH; pH 12 solution
  Solubility: 55.32 µg/mL (≈ 92.6 µM)
[4]; Day 1 dosing, 2 hours after dosing
  maximum decrease of IOP, contralateral normal eye: did not decrease
[4]; Day 1 dosing
  maximum decrease of IOP, glaucomatous eye: 9.2±4.1 mmHg
[4]; KR-67607 1.5 mg/mL, after Week 9
  effect on IOP (Extra dosing): did not affect
[4]; KR-67607 3.0 mg/mL, 1 hour after instillation
  maximum decrease of IOP (Extra dosing): 12.0±2.8 mmHg
[4]; glaucomatous eyes, repeated treatment twice a day, brimonidine tartrate 0.1%, KR-67607 1.5 mg/mL
  effect on trough IOP value: did not significantly affect
[4]; over weeks
  maximum decrease of IOP, normal eye: did not decrease
  maximum decrease of IOP, glaucomatous eye: 10.4±2.2 mmHg
[4]; summary
  IOP-decreasing effect in glaucomatous eyes relative to brimonidine: smaller than that of brimonidine
[5]; Week 5
  animals with small optic discs compared to G1 in the glaucomatous eyes: four of six animals
[5]; Week 9
  animals with a small or lesser degree of cupping: three animals
